ChEMBL document CHEMBL4673303, “Heterologous Expression of the Biosynthetic Gene Cluster for Verticilactam and Identification of Analogues” (J Nat Prod, 2020)
Calls of active or inactive are those of the source. The rule behind the calls is not given here.

Tests used:
Plasmodium falciparum = experiment: Antimalarial activity against Plasmodium falciparum 3D7; assay type: functional, organism-based
Candida albicans = experiment: Antimicrobial activity against Candida albicans JCM1542 assessed as reduction in microbial growth up to 70 uM after 48 hrs; assay type: functional, organism-based; conditions: dose microM <=70, time 48.0 hrs
Pyricularia oryzae = experiment: Antimicrobial activity against Pyricularia oryzae kita-1 assessed as reduction in microbial growth up to 70 uM after 48 hrs; assay type: functional, organism-based; conditions: dose microM <=70, time 48.0 hrs
Aspergillus fumigatus = experiment: Antimicrobial activity against Aspergillus fumigatus Af293 assessed as reduction in microbial growth up to 70 uM after 48 hrs; assay type: functional, organism-based; conditions: dose microM <=70, time 48.0 hrs
Escherichia coli = experiment: Antimicrobial activity against Escherichia coli HO141 assessed as reduction in microbial growth up to 70 uM after 24 hrs; assay type: functional, organism-based; conditions: dose microM <=70, time 24.0 hrs
Staphylococcus aureus = experiment: Antimicrobial activity against Staphylococcus aureus 209 assessed as reduction in microbial growth up to 70 uM after 24 hrs; assay type: functional, organism-based; conditions: dose microM <=70, time 24.0 hrs
NRK = experiment: Cytotoxicity against rat NRK cells infected with ts25 T-class mutant of Rous sarcoma virus Prague strain assessed as reduction in cell viability up to 70 uM after 48 hrs by WST-8 assay; assay type: functional, cell-based; conditions: dose microM <=70, time 48.0 hrs
HL-60 = experiment: Cytotoxicity against human HL-60 cells assessed as reduction in cell viability up to 70 uM after 48 hrs by WST-8 assay; assay type: functional, cell-based; conditions: dose microM <=70, time 48.0 hrs
HeLa = experiment: Cytotoxicity against human HeLa cells assessed as reduction in cell viability up to 70 uM after 48 hrs by WST-8 assay; assay type: functional, cell-based; conditions: dose microM <=70, time 48.0 hrs

With `C\C1=C/C=C\C=C\[C@H](C)CNC(=O)CC(=O)C[C@@H]2O[C@H]3[C@@H]4[C@@H](C=C[C@H]1[C@H]42)[C@@H](O)C[C@H]3O` the IC50 (Plasmodium falciparum) was 12 µM, the Activity (Candida albicans) was “inactive” and the Activity (Pyricularia oryzae) was “inactive”. The Activity (Aspergillus fumigatus) was “inactive”, the Activity (Escherichia coli) was “inactive” and the Activity (Staphylococcus aureus) was “inactive”. For the same compound, the Activity (NRK) was “inactive”, the Activity (HL-60) was “inactive” and the Activity (HeLa) was “inactive”.
